The values that follow come from ChEMBL document CHEMBL1145541 (J Med Chem, 2008).

pIC50, pKi: −log10 of the molar value.

Data set [1] concerns the target T1, Type-1 angiotensin II receptor A (Rattus norvegicus, UniProt P25095).
T1 sequence (P25095 whole entry): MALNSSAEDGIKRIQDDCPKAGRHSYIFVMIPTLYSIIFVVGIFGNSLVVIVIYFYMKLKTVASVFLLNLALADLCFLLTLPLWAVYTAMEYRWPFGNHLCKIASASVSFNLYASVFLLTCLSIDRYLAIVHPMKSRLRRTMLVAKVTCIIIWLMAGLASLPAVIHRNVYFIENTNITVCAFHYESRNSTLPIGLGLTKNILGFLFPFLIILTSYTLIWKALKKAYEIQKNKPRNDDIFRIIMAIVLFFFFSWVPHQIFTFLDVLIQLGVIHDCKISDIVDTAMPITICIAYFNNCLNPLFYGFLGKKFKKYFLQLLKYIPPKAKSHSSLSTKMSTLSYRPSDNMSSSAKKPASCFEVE
As to the kind of experiment: Displacement of [125I]Sar1,Ile8-Ang2 from AT1 receptor in Wistar rat hepatic membrane. It is filed as cell membranes, Liver.

A further data set can be described thus: in vitro. The conditions noted are these: human, Caco-2.
Data set [2] addresses T2, Type-1 angiotensin II receptor (Oryctolagus cuniculus, UniProt P34976).
T2 sequence (P34976 whole entry): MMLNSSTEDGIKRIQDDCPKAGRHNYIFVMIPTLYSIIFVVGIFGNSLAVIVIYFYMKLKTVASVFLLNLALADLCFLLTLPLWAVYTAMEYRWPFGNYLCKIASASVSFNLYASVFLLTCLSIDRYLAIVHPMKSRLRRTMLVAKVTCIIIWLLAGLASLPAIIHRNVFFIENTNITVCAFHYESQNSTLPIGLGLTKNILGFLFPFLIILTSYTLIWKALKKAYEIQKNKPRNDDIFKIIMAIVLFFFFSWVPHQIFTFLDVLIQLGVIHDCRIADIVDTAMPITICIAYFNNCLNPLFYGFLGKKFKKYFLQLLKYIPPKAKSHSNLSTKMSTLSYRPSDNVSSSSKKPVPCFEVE
As to the kind of experiment: Antagonist activity at AT1 receptor in Ang II-contracted rabbit aortic strips after 60 mins. Conditions: read-out: pA2 (converted).

Data set [3] is described as follows: Half life in Sprague-Dawley rat at 15 mg/kg, po. It is filed as ADME, organism-based. The arrangement: dose 15 mg/kg, route oral. Conditions: in vivo.
A short description of data set [4]: Cmax in Sprague-Dawley rat at 15 mg/kg, po. It is filed as ADME, organism-based. On the set-up: dose 15 mg/kg, route oral. Conditions: in vivo.
Data set [5] can be described thus: Half life in Sprague-Dawley rat at 5 mg/kg, iv. It is filed as ADME, organism-based. On the set-up: dose 5 mg/kg, route intravenous. Conditions: in vivo.
The nature of data set [6]: Tmax in Sprague-Dawley rat at 15 mg/kg, po. The arrangement: dose 15 mg/kg, route oral. It is filed as ADME, organism-based. The conditions noted are these: in vivo.
Data set [7] in a line: AUC in Sprague-Dawley rat at 15 mg/kg, po. It is filed as ADME, organism-based. The arrangement: dose 15 mg/kg, route oral. Conditions: plasma.
Data set [8] is described as follows: Cmax in Sprague-Dawley rat at 5 mg/kg, iv. It is filed as ADME, organism-based. The arrangement: dose 5 mg/kg, route intravenous. The conditions noted are these: in vivo.
The nature of data set [9]: AUC in Sprague-Dawley rat at 5 mg/kg, iv. It is filed as ADME, organism-based. On the set-up: dose 5 mg/kg, route intravenous. Conditions: plasma.
The nature of data set [10]: Oral bioavailability in Sprague-Dawley rat at 15 mg/kg. It is filed as ADME, organism-based. The conditions noted are these: in vivo.

Description for in vitro: Permeability from apical to basolateral side of human Caco-2 cell membrane

The pIC50 is the IC50 on a negative log10 scale, so that one unit is a factor of ten. Higher therefore signals a low IC50. `CCCN1C(=O)c2cccnc2C1Cc1ccc(-c2ccccc2-c2nn[nH]n2)cc1` (centres undefined) showed a negative logarithm of the IC50 (pIC50) in [1] of under 5.52.

`CCCn1c(=O)c2cccnc2n1Cc1ccc(-c2ccccc2-c2nnn[nH]2)cc1` gave a pIC50 in data set [1] of 6.97.

Take `CCCCn1c(=O)c2ccc(N3CCOCC3)nc2n1Cc1ccc(-c2ccccc2-c2nnn[nH]2)cc1`: in data set [1], the negative-log IC50 (pIC50) was 6.22.

The compound `CCCCn1nc(OCc2ccc(-c3ccccc3-c3nn[nH]n3)cc2)c2cccnc2c1=O` had a pIC50 in [1] of 6.94.

For `CC(C)CCn1c(=O)c2cccnc2n1Cc1ccc(-c2ccccc2-c2nnn[nH]2)cc1`, the pIC50 in [1] is 6.91.

Turning to `CCCCn1c(=O)c2cc(F)cnc2n1Cc1ccc(-c2ccccc2-c2nnn[nH]2)cc1`, the negative-log IC50 (pIC50) in data set [1] was 7.15.

For the compound `CCCCn1c(=O)c2ccc(NC)nc2n1Cc1ccc(-c2ccccc2-c2nn[nH]n2)cc1`, the pIC50 in data set [1] is 6.91.

In the case of `CCCC1c2ncccc2C(=O)N1Cc1ccc(-c2ccccc2-c2nn[nH]n2)cc1` (centres undefined), the negative logarithm of the IC50 (pIC50) in [1] was 6.81.

On to `O=c1c2cccnc2n(Cc2ccc(-c3ccccc3-c3nn[nH]n3)cc2)n1Cc1ccccc1`, for which, in data set [1], the pIC50 was under 5.52.

Consider `CCCc1nc2c(C)cc(C)nc2n1Cc1ccc(-c2ccccc2-c2nn[nH]n2)cc1`, for which, in data set [1], the pIC50 was 9.10.

`CCc1nc2c(C)cc(C)nc2n1Cc1ccc(-c2c(-c3nnn[nH]3)cnc3ccccc23)cc1` showed a pIC50 in [1] of 8.16.

As a reminder, the Papp A→B is the apparent permeability from the apical to the basolateral side of a cell layer. The term half-life denotes the time needed for the level to fall by half in the phase considered. A lower half-life goes with rapid decline. The term Cmax denotes the maximum level reached in the sampled fluid or tissue. A word on the Tmax: it is the time from dosing to the highest level. By AUC is commonly meant concentration integrated over time. A low value points to less exposure. The term bioavailability denotes the share of a dose that reaches the circulation, judged against a reference dose that is usually intravenous. As for `CCCCn1c(=O)c2cccnc2n1Cc1ccc(-c2ccccc2-c2nn[nH]n2)cc1`, in “in vitro”, the Papp A→B was determined as 1.78 ×10⁻⁶ cm/s. Besides, the Kb in [2] was 10.5 nM. Moreover, the pIC50 in [1] was 7.74. Besides, the half-life is 54 min in [3] and 60 min in [5]. Also, the Cmax in data set [4] was 4100 ng/mL; in data set [8], 6320 ng/mL. Besides, the time to peak (Tmax) in [6] worked out at 30 min. For the same compound, the results for the AUC in data set [7] and in data set [9] were 3380 ng·h/mL and 1410 ng·h/mL, respectively. The compound also registered a bioavailability in data set [10] of 80%.

Turning to `CCCCC1c2ncccc2C(=O)N1Cc1ccc(-c2ccccc2-c2nn[nH]n2)cc1` (centres undefined), the Papp A→B in “in vitro” came to 5.6 ×10⁻⁶ cm/s. In [1], this compound gave a pIC50 of 7.02.

`CCC1c2ncccc2C(=O)N1Cc1ccc(-c2ccccc2-c2nn[nH]n2)cc1` (centres undefined): the pIC50 in [1] was under 5.00.

For `CCCCn1c2ncccc2c(=O)n1Cc1ccc(-c2ccccc2-c2nnn[nH]2)cc1`, the Papp A→B in “in vitro” was determined as 3.6 ×10⁻⁶ cm/s. Further, in data set [2], the Kb is 14.8 nM. Also, the negative-log IC50 (pIC50) in [1] was 7.41.

In the case of `CCc1nc2c(C)cc(C)nc2n1Cc1ccc(-c2ccccc2-c2nnn[nH]2)cc1` [L-158809], the pIC50 in [1] is 9.40.

Turning to `CCCCn1c(=O)c2ccc(Cl)nc2n1Cc1ccc(-c2ccccc2-c2nnn[nH]2)cc1`, the negative-log IC50 (pIC50) in data set [1] was 6.77.

In turn, `CCCCn1nc(OCc2ccc(-c3ccccc3-c3nnn[nH]3)cc2)c2cccnc21` had a pIC50 in [1] of 6.60.

For the compound `CCCCn1c(=O)c2ccccc2n1Cc1ccc(-c2ccccc2-c2nnn[nH]2)cc1`, the pIC50 in data set [1] was 6.22.

Compound `O=C1c2cccnc2CN1Cc1ccc(-c2ccccc2-c2nn[nH]n2)cc1` had a pIC50 in data set [1] of under 5.00.

As usually defined, the pKi is the Ki on a negative log10 scale, so that one unit is a factor of ten. Higher therefore signals a low Ki. As for `CCCCN1C(=O)C2(CCCC2)C(=O)N1Cc1ccc(-c2ccccc2-c2nn[nH]n2)cc1`, the pKi in [1] is 7.60.

`CCCCn1c2nc(Cl)ccc2c(=O)n1Cc1ccc(-c2ccccc2-c2nn[nH]n2)cc1` had a pIC50 in data set [1] of 6.34.

On to `CCCCCn1c(=O)c2cccnc2n1Cc1ccc(-c2ccccc2-c2nnn[nH]2)cc1`, for which the pIC50 in [1] is 7.28.

As for `CCn1c(=O)c2ccc(C)nc2n1Cc1ccc(-c2ccccc2-c2nnn[nH]2)cc1`, in [1], the pIC50 was 5.73.

`CCCCn1c(=O)c2cc(Cl)cnc2n1Cc1ccc(-c2ccccc2-c2nnn[nH]2)cc1` yielded a Papp A→B in the data set “in vitro” of 10.8 ×10⁻⁶ cm/s. Also, the negative-log IC50 (pIC50) in [1] was 7.12.

In data set [1], `CCCCN1C(=O)C2(CCCC2)CC(=O)N1Cc1ccc(-c2ccccc2-c2nnn[nH]2)cc1` showed a pKi of 7.10.

As to `CCCn1nc(OCc2ccc(-c3ccccc3-c3nnn[nH]3)cc2)c2cccnc21`, the pIC50 in data set [1] was 6.84.

With `CCCCN1C(=O)CC2(CCCC2)C(=O)N1Cc1ccc(-c2ccccc2-c2nn[nH]n2)cc1`, in data set [1], the negative-log Ki (pKi) is 7.85.

`CCCCn1c2nc(C)ccc2c(=O)n1Cc1ccc(-c2ccccc2-c2nn[nH]n2)cc1` displayed an apparent permeability from apical to basolateral (Papp A→B) in “in vitro” of 8.7 ×10⁻⁶ cm/s. The compound also showed a pIC50 in [1] of 7.05.

For the compound `CCCn1c(=O)c2ccc(C)nc2n1Cc1ccc(-c2ccccc2-c2nnn[nH]2)cc1`, in data set [1], the negative logarithm of the IC50 (pIC50) was 6.54.

`CCCCn1c(=O)c2ccc(OC)nc2n1Cc1ccc(-c2ccccc2-c2nnn[nH]2)cc1` gave a negative logarithm of the IC50 (pIC50) in [1] of 6.59.

For `CC(C)Cn1c(=O)c2cccnc2n1Cc1ccc(-c2ccccc2-c2nn[nH]n2)cc1`, in data set [1], the pIC50 is 5.64.

The compound `CCCCn1c(=O)c2ccc(C)nc2n1Cc1ccc(-c2ccccc2-c2nnn[nH]2)cc1` had a negative-log IC50 (pIC50) in [1] of 7.09.

For `CCCCn1c(=O)c2cc(F)c(Cl)nc2n1Cc1ccc(-c2ccccc2-c2nnn[nH]2)cc1`, in [1], the negative-log IC50 (pIC50) was 6.37.
